Consider 24 molecules from ChEMBL document CHEMBL4622854, “Synthetic bioactive olivetol-related amides: The influence of the phenolic group in cannabinoid receptor activity” (Bioorg Med Chem, 2020).

The Ki is a dissociation constant, usually derived from enzyme kinetics or from competition with a known ligand. The EC50 is the concentration giving half of the maximal effect. In general, Kb refers to the equilibrium dissociation constant of an antagonist, usually derived from a functional assay. The term Emax denotes the greatest response seen or fitted, relative to the assay's reference. As usually defined, the IC50 is the midpoint of a concentration-inhibition curve.

The structures appear in SMILES notation. Activity calls are given as the source filed them. The calls are words filed in the database; no cut-off is given here.

Assay [1] is filed under the species Homo sapiens. The assay can be described thus: Selectivity ratio of Ki for displacement of [3H]-CP55940 from human recombinant CB1 receptor expressed in HEK293 cell membrane to Ki for displacement of [3H]-CP55940 from human recombinant CB2 receptor expressed in HEK293 cell membrane. (In general: Loss of bound radioactivity is the signal in a displacement assay; it reports binding, not function.)

The target in assay [2] is T1, Cannabinoid receptor 1 (Homo sapiens, UniProt P21554). The assay can be described thus: Displacement of [3H]-CP55940 from human recombinant CB1 receptor expressed in HEK cell membrane. The format is cell membranes.
T1 sequence (P21554 whole entry): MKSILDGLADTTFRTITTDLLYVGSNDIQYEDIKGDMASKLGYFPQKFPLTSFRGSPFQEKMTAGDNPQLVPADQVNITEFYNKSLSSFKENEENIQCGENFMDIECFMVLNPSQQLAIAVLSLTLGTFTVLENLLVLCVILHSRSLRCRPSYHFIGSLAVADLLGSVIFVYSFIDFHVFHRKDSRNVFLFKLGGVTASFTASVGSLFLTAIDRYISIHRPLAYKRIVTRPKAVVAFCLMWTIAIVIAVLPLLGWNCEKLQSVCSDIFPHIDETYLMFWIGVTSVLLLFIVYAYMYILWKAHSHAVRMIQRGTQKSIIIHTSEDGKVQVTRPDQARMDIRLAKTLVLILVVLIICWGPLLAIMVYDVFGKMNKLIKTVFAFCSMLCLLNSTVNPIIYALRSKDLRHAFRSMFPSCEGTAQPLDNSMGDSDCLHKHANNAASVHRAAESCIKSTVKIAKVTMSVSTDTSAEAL
In assay [3] the target is T2, Cannabinoid receptor 2 (Homo sapiens, UniProt P34972). Description: Displacement of [3H]-CP55940 from human recombinant CB2 receptor expressed in HEK cell membrane. Type of assay: cell membranes.
T2 sequence (P34972 whole entry): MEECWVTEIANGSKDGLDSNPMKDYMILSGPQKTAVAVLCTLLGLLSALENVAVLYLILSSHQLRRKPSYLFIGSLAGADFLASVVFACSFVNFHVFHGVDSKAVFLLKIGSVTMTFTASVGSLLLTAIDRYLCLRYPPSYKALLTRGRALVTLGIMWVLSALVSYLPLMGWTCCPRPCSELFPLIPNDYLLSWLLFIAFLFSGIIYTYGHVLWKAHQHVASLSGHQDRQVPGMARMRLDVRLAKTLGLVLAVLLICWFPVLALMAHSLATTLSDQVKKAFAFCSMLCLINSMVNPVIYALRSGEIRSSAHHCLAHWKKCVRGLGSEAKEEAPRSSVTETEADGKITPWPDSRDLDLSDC
Assay [4] concerns the target T2, Cannabinoid receptor 2. Description: Agonist activity at human CB2 receptor expressed in CHO cell membrane assessed as inhibition of [35S]-GTPgammaS binding incubated for 1 hr by liquid scintillation counting assay. The format is functional, cell membranes.
Assay [5] concerns the target T2, Cannabinoid receptor 2. Description: Antagonist activity at human CB2 receptor expressed in CHO cell membrane assessed as inhibition of CP55940-induced [35S]-GTPgammaS binding incubated for 1 hr by liquid scintillation counting. On the technique in general: GTPγS is a poorly hydrolysed GTP analogue; its binding reports G protein activation.
Assay [6] addresses T2, Cannabinoid receptor 2. The assay can be described thus: Agonist activity at human CB2 receptor at 1 nM to 1 uM expressed in CHO cell membrane assessed as stimulation of [35S]-GTPgammaS binding incubated for 1 hr by liquid scintillation counting assay.
Assay [7] concerns the target T2, Cannabinoid receptor 2. The assay can be described thus: Agonist activity at human CB2 receptor expressed in CHO cell membrane assessed as stimulation of [35S]-GTPgammaS binding incubated for 1 hr by liquid scintillation counting assay relative to control.
In assay [8] the target is T1, Cannabinoid receptor 1. Description: Agonist activity at human CB1 receptor expressed in CHO cell membrane assessed as stimulation of [35S]-GTPgammaS binding incubated for 1 hr by liquid scintillation counting assay relative to control.
The target of assay [9] is T3, Transient receptor potential cation channel subfamily V member 1 (Homo sapiens, UniProt Q8NER1). The assay can be described thus: Antagonist activity at human TRPV1 expressed in HEK293 cells assessed as capsaicin-induced increase of calcium influx preincubated for 5 mins by Fluo-4AM dye based fluorescence assay. The format is cell-based.
T3 sequence (Q8NER1 whole entry): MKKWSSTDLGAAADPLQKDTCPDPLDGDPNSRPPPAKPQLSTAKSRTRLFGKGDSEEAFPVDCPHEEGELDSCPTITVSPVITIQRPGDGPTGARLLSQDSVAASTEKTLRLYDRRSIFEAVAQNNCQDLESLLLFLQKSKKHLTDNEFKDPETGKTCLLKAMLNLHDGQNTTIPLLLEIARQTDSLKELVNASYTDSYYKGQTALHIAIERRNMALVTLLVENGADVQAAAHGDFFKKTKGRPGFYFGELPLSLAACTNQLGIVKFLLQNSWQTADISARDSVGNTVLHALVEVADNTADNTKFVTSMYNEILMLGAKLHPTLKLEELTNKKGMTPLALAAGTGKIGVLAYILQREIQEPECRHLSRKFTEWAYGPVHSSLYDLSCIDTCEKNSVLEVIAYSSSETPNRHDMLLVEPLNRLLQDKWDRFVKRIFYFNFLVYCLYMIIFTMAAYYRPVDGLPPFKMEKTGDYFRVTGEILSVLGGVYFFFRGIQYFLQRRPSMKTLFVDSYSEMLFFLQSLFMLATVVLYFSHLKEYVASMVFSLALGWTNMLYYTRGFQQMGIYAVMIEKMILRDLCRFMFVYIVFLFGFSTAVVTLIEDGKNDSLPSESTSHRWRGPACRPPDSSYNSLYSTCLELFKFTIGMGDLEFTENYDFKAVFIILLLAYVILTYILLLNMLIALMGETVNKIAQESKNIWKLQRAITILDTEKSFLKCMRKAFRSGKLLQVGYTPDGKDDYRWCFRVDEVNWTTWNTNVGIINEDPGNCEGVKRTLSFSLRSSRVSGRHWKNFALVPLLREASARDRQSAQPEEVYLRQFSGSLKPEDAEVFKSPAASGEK
In assay [10] the target is T4, Transient receptor potential cation channel subfamily A member 1 (Rattus norvegicus, UniProt Q6RI86). Description: Antagonist activity at rat recombinant TRPA1 expressed in HEK293 cells assessed as AITC-induced increase of calcium influx preincubated for 5 mins by Fluo-4AM dye based fluorescence assay. Type of assay: cell-based.
T4 sequence (Q6RI86 whole entry): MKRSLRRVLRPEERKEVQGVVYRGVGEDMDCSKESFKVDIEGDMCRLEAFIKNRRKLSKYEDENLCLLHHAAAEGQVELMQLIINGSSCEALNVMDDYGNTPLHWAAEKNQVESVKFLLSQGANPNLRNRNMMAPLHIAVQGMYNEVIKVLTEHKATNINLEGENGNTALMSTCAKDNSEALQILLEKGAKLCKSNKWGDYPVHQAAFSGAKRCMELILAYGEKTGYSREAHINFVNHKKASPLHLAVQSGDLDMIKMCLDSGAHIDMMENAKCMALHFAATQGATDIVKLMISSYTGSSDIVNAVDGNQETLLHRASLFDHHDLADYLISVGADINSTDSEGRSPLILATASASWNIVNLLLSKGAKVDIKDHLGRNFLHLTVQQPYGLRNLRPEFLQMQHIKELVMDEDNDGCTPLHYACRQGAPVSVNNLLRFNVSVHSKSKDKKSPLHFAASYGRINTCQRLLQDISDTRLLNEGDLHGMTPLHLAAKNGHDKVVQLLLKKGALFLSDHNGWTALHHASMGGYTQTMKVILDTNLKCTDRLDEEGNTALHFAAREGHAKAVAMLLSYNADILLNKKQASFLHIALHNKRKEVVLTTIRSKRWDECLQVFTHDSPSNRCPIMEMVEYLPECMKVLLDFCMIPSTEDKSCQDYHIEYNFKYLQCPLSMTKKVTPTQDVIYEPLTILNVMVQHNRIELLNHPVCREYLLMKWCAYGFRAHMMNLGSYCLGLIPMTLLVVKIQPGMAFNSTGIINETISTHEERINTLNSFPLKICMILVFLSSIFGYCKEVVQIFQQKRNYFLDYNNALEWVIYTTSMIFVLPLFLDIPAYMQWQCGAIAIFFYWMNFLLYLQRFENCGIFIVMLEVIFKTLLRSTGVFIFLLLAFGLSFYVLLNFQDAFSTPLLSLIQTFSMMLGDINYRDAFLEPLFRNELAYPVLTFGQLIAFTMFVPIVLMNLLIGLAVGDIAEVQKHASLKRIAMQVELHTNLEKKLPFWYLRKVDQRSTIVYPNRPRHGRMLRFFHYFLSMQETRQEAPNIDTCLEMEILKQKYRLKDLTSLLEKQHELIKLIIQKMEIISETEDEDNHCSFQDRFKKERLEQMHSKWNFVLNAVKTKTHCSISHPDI
Assay [11] concerns the target T4, Transient receptor potential cation channel subfamily A member 1. Description: Activation of rat recombinant TRPA1 expressed in HEK293 cells assessed as calcium influx preincubated for 5 mins by Fluo-4AM dye based fluorescence assay. Type of assay: cell-based.
Assay [12] deals with T3, Transient receptor potential cation channel subfamily V member 1. Description: Activation of human TRPV1 expressed in HEK293 cells assessed as calcium influx preincubated for 5 mins by Fluo-4AM dye based fluorescence assay. Type of assay: cell-based.
In assay [13] the test system is Mus musculus. The assay can be described thus: Antinociceptive activity in formalin-induced nociception pain CD-1 mouse model assessed as reduction in pain related behavior in late phase through ip pretreated with compound 10 mins prior to formalin induction measured after 20 to 60 mins by formalin test. The format is functional, organism-based.
For assay [14], the target named is Transient receptor potential cation channel subfamily A member 1 (Rattus norvegicus) (UniProt Q6RI86). Description: Antagonist activity at rat recombinant TRPA1 expressed in HEK293 cells assessed as AITC-induced increase of calcium influx at 100 uM preincubated for 5 mins by Fluo-4AM dye based fluorescence assay relative to control. The format is cell-based.
Transient receptor potential cation channel subfamily A member 1 (Rattus norvegicus), sequence (Q6RI86 whole entry): as above
For assay [15], the system named is Mus musculus. Description: Antinociceptive activity in formalin-induced nociception pain CD-1 mouse model assessed as reduction in pain related behavior in first phase at 4 mg/kg, ip pretreated with compound 10 mins prior to formalin induction measured from 0 to 10 mins by formalin test. Type of assay: functional, organism-based.
Assay [16] deals with HepG2. Description: Antiproliferation activity against human HepG2 cells assessed as reduction in cell viability at 1 uM incubated for 24 to 72 hrs by MTT assay. Type of assay: functional, cell-based. On the technique in general: Formazan colour is commonly taken as a measure of viable cells.
For assay [17], the species on record is Mus musculus. The assay can be described thus: Antinociceptive activity in formalin-induced nociception pain CD-1 mouse model assessed as reduction in pain related behavior pretreated with compound 10 mins prior to formalin induction co-treated with AM630 measured until 60 mins by formalin test. Type of assay: functional, organism-based.
In assay [18] the target is T3, Transient receptor potential cation channel subfamily V member 1. The assay can be described thus: Antagonist activity at human TRPV1 expressed in HEK293 cells assessed as ionomycin-induced increase of calcium influx at 4 uM preincubated for 5 mins by Fluo-4AM dye based fluorescence assay relative to control. Type of assay: cell-based.
The target of assay [19] is T1, Cannabinoid receptor 1. Description: Agonist activity at human CB1 receptor expressed in CHO cell membrane assessed as stimulation of [35S]-GTPgammaS binding incubated for 1 hr by liquid scintillation counting assay. Type of assay: functional, cell membranes.
For assay [20], the species on record is Mus musculus. Description: Antinociceptive activity in formalin-induced nociception pain CD-1 mouse model assessed as reduction in pain related behavior pretreated with compound 10 mins prior to formalin induction co-treated with AM251 measured until 60 mins by formalin test. Type of assay: functional, organism-based.
Assay [21] relates to Mus musculus. Description: Antinociceptive activity in formalin-induced nociception pain CD-1 mouse model assessed as reduction in pain related behavior in late phase at 6 mg/kg, ip pretreated with compound 10 mins prior to formalin induction measured after 20 to 60 mins by formalin test. The format is functional, organism-based.
The test system of assay [22] is Mus musculus. Description: Antinociceptive activity in formalin-induced nociception pain CD-1 mouse model assessed as reduction in pain related behavior in late phase at 1 to 3 mg/kg, ip pretreated with compound 10 mins prior to formalin induction measured after 20 to 60 mins by formalin test. The format is functional, organism-based.
Assay [23] has as its target T2, Cannabinoid receptor 2. Description: Agonist activity at human CB2 receptor at 10 uM expressed in CHO cell membrane assessed as stimulation of [35S]-GTPgammaS binding incubated for 1 hr by liquid scintillation counting assay relative to control.

On to `CCCCCCC(C)(C)c1cc(OC)cc(OCCCCCCCCCCC(=O)NC(CO)CO)c1`, for which, in [1], the Selectivity ratio is > 7.3. The values for the Ki in assay [2] and in assay [3] were > 10000 nM and 1370 nM, respectively.
As for `CCCCCc1cc(OCCCCCCCCCCC(=O)NC2CC2)cc(OC(C)C)c1`, the Selectivity ratio in [1] came to 7.7. For the same molecule, the Ki stood at 20.7 nM in [2] and 2.7 nM in [3].
For `CCCCCCc1ccc(OCCCCCCCCCCC(=O)NCC2CC2)cc1OC`, the EC50 in [4] stood at 174 nM. In addition, in [1], the Selectivity ratio turned out to be 66.6. For the same molecule, the Ki in assay [2] stood at 3250 nM; in assay [3], 48.8 nM. Also, the Kb in assay [5] stood at 30.6 nM. In addition, in [6], the outcome was Active. Moreover, the Emax in assay [7] was -18.3%.
As to `CCCCCCC(C)(C)c1cc(OC)cc(OCCCCCCCC(=O)NC2CC2)c1`, the figures for the Emax in [8] and in assay [7] were 52.5% and 28.3%, respectively. The EC50 in [4] was 1.16 nM; in assay [11] it was 11100 nM; in assay [12], 120 nM; in [19], 15.1 nM. In addition, the IC50 in assay [9] is 800 nM; in assay [10] it was > 100000 nM. Moreover, the Activity result in assay [13] was “Dose-dependent effect”. The Efficacy in assay [14] is 17.2%; in assay [18] it was 29.4%. Further, in [1], the Selectivity ratio was found to be 0.3. Besides, the outcome in assay [15] and in [17] was Active. For the same molecule, the outcome in assay [16] and in [20] was inactive. Moreover, the Ki in [2] was determined as 1.1 nM; in assay [3], 4.2 nM.
For `CCCCCc1cc(OC)cc(OCCCCCCCCCCC(=O)NC(CO)CO)c1`, in assay [1], the Selectivity ratio was 0.6. In addition, the inhibition constant (Ki) in [2] turned out to be 350 nM; in [3], 598 nM.
Consider `CCCCCc1cc(OC)cc(OCCCCCCCCCCC(=O)NC2CC2)c1`, for which the Emax in assay [8] is 62.7%; in assay [23], -17.8%. The results for the EC50 in assay [4] and in assay [19] were 398 nM and 6.21 nM, respectively. Further, the outcome in assay [21] and in [6] was Active. In assay [1], the Selectivity ratio is 2.9. For the same molecule, the outcome in [17], in assay [22] and in [20] was inactive. Further, the Ki in assay [2] is 3.5 nM; in assay [3], 1.2 nM. Moreover, the Kb in assay [5] came out at 37.8 nM.
Consider `CCCCCc1cc(OC)cc(OCCCCCCCC(=O)NCCO)c1`, for which, in [1], the Selectivity ratio came out at 1.8. The figures for the Ki in [2] and in assay [3] were 76.1 nM and 41.9 nM, respectively.
Take `CCCCCc1cccc(OCCCCCCCCCCC(=O)NC2CC2)c1`: the Emax in assay [8] is 29.5%; in assay [7], -13%. Moreover, the EC50 amounted to 1.28 nM in [4] and 31 nM in [19]. Besides, the Selectivity ratio in [1] worked out at 1.7. For the same molecule, the Ki in assay [2] came out at 5.9 nM; in [3] it was 3.5 nM. Moreover, in [5], the Kb turned out to be 78.2 nM.
As for `CCCCCCC(C)(C)c1cc(OC)cc(OCCCCCCCC(=O)NCCO)c1`, in [1], the Selectivity ratio stood at 0.7. The Ki was 89.1 nM in assay [2] and 129 nM in [3].
Take `CCCCCc1cc(OC)cc(OCCCCCCCCCCC(=O)NCC(F)(F)F)c1`: the Selectivity ratio in [1] stood at 3.3. Further, the Ki came to 75.5 nM in [2] and 22.9 nM in [3].
Regarding `CCCCCc1cc(O)cc(OCCCCCCCCCCC(=O)NC2CC2)c1`, the Selectivity ratio in [1] was determined as 0.4.
As for `CCCCCc1cc(OC)cc(OCCCCCCCCCCC(=O)NCC2CC2)c1`, in assay [1], the Selectivity ratio turned out to be 28.9. Moreover, the Ki was found to be 297 nM in assay [2] and 10.3 nM in assay [3].
Regarding `CCCCCCC(C)(C)c1cc(OC)cc(OCCCCCCCCCCC(=O)NCC2CC2)c1`, the Selectivity ratio in [1] stood at 9.9. Besides, the Ki in [2] was determined as 3190 nM; in [3], 322 nM.
Take `CCCCCc1cc(OCC)cc(OCCCCCCCCCCC(=O)NC2CC2)c1`: the Selectivity ratio in assay [1] was 1.8. In addition, the figures for the Ki in assay [2] and in assay [3] were 11.7 nM and 6.7 nM, respectively.
For the molecule `CCCCCc1cc(OC)cc(OCCCCCCCCCCC(=O)Nc2ccccc2)c1`, the Selectivity ratio in [1] came to 2.7. In addition, the Ki in assay [2] is 845 nM; in [3] it was 309 nM.
As for `C=CCOc1cc(CCCCC)cc(OCCCCCCCCCCC(=O)NC2CC2)c1`, the Selectivity ratio in assay [1] came out at 2.9. In addition, the Ki in assay [2] turned out to be 13.6 nM; in assay [3], 4.7 nM.
Consider `CCCCCCC(C)(C)c1cc(OC)cc(OCCCCCCCC(=O)NCC(F)(F)F)c1`, for which, in [1], the Selectivity ratio stood at 0.6. For the same molecule, the Ki in [2] turned out to be 53.5 nM; in assay [3], 92.8 nM.
As to `C=CCNC(=O)CCCCCCCOc1cc(OC)cc(C(C)(C)CCCCCC)c1`, the Selectivity ratio in [1] is 0.2. Besides, the Ki in assay [2] worked out at 7.6 nM; in assay [3] it was 31.2 nM.
Turning to `CCCCCCc1ccc(OC)cc1OCCCCCCCCCCC(=O)NCC1CC1`, the Selectivity ratio in [1] turned out to be 11.1. For the same molecule, the figures for the Ki in assay [2] and in assay [3] were 693 nM and 62.6 nM, respectively.
As for `CCCCCCC(C)(C)c1cc(OC)cc(OCCCCCCCCCCC(=O)NCCO)c1`, in assay [1], the Selectivity ratio was 30. The Ki in assay [2] came to 3160 nM; in assay [3], 104 nM.
The corresponding values for `CCCCCc1cc(OCCCC)cc(OCCCCCCCCCCC(=O)NC2CC2)c1` are 0.5, 11.3 nM and 21.5 nM.
As for `CCCCCc1cc(OC)cc(OCCCCCCCCCCC(=O)NCCO)c1`, the Selectivity ratio in assay [1] was 2.6. Besides, the results for the Ki in [2] and in assay [3] were 87.6 nM and 33.2 nM, respectively.
For the molecule `CCCCCCC(C)(C)c1cc(OC)cc(OCCCCCCCCCCC(=O)NC2CC2)c1`, the Selectivity ratio in [1] amounted to 10.7. Besides, the Ki is 280 nM in [2] and 26.1 nM in assay [3].
As for `C=CCNC(=O)CCCCCCCCCCOc1cc(CCCCC)cc(OC)c1`, in [1], the Selectivity ratio was 3.5. Moreover, the inhibitory constant (Ki) stood at 23.7 nM in assay [2] and 6.8 nM in assay [3].
